According to patent US10173985B2, “Aminoindazole derivatives as sodium channel inhibitors” (ALMIRALL, S.A., priority 2015, dated 2019):

Assays:
[1] = target: voltage-gated sodium channel Nav1.7 (Homo sapiens (Human), UniProt Q15858); test: Nav1.7 screening assay, IonWorks Quattro automated patch-clamp electrophysiology; type: cell-based; details: stable CHO or HEK293 cell line expressing Nav1.7; percent block at peak 1 and peak 10; 5 minutes compound incubation; read-out: Nav 1.7 IC50
Experimental: (§1) Assay Procedure Nav1.7 and Nav1.5 Screening Assay
(§2) Stable cell lines expressing the full-length protein of the voltage-gated sodium channels Nav1.7 or Nav1.5, with or without one beta-1, beta-2, beta-3, or beta-4 subunit, are created by transfected CHO cells or HEK293 cells, or any other suitable cell line, with a vector construct containing the complete open reading frame under a suitable promoter, as well known in the art.
(§3) Electrophysiological studies are performed with an IonWorks Quattro (Molecular Devices Corp.) automated patch-clamp electrophysiology platform as described by (Schroeder K et al. Journal of Biomolecular Screening 2003, 8 (1), 50-64). Buffers for the experiments have the following composition (mM): Internal solution; K-gluconate 100, KCl 40, MgCl2 3.2, HEPES 5, EGTA 3, pH 7.3. To this amphotericin B is added to final concentration of 0.1 mg/ml to generate access solution. External solution; Dulbecco's Phosphate buffered saline (D-PBS) NaCl 137.93, KCl 2.67, KH2PO4 1.47, Na2HPO4 8.06, CaCl2 0.90, MgCl2 0.49. Prior to the experiment the cells expressing the voltage-gated ion channel of interest are detached from the tissue culture flasks, centrifuged and resuspended in D-PBS. Compounds are prepared and serially diluted in DMSO and finally diluted 1:100 in D-PBS. Cells are exposed to compounds through the pipetting system integrated into the platform and the voltage-gated ion channel of interest is activated with specific voltage stimulation protocols. The following voltage stimulation protocol is used for testing compounds against the voltage-gated sodium channel Nav1.7; from a holding potential of −100 mV a train of eight 60 ms depolarising steps to −20 mV at a frequency of 14 Hz are employed followed by a further step to −20 mV for 2000 ms. After which the voltage is returned to −100 mV for 10 ms before another voltage step to −20 mV for 60 ms is applied. The following voltage stimulation protocol is used for testing compounds against the voltage-gated sodium channel Nav1.5; from a holding potential of −120 mV a train of twenty-six 120 ms depolarising steps to −20 mV at a frequency of 5 Hz are employed. Recordings are made before and after compound addition with the compound incubation time being 5 minutes.

[2] = target: voltage-gated sodium channel Nav1.5 (Homo sapiens (Human), UniProt Q14524); test: Nav1.5 screening assay, IonWorks Quattro automated patch-clamp electrophysiology; type: cell-based; details: stable CHO or HEK293 cell line expressing Nav1.5; percent block at peak 1 and 25; 5 minutes compound incubation; read-out: Nav 1.5 IC50
Sequence of voltage-gated sodium channel Nav1.5 (Q14524 whole entry): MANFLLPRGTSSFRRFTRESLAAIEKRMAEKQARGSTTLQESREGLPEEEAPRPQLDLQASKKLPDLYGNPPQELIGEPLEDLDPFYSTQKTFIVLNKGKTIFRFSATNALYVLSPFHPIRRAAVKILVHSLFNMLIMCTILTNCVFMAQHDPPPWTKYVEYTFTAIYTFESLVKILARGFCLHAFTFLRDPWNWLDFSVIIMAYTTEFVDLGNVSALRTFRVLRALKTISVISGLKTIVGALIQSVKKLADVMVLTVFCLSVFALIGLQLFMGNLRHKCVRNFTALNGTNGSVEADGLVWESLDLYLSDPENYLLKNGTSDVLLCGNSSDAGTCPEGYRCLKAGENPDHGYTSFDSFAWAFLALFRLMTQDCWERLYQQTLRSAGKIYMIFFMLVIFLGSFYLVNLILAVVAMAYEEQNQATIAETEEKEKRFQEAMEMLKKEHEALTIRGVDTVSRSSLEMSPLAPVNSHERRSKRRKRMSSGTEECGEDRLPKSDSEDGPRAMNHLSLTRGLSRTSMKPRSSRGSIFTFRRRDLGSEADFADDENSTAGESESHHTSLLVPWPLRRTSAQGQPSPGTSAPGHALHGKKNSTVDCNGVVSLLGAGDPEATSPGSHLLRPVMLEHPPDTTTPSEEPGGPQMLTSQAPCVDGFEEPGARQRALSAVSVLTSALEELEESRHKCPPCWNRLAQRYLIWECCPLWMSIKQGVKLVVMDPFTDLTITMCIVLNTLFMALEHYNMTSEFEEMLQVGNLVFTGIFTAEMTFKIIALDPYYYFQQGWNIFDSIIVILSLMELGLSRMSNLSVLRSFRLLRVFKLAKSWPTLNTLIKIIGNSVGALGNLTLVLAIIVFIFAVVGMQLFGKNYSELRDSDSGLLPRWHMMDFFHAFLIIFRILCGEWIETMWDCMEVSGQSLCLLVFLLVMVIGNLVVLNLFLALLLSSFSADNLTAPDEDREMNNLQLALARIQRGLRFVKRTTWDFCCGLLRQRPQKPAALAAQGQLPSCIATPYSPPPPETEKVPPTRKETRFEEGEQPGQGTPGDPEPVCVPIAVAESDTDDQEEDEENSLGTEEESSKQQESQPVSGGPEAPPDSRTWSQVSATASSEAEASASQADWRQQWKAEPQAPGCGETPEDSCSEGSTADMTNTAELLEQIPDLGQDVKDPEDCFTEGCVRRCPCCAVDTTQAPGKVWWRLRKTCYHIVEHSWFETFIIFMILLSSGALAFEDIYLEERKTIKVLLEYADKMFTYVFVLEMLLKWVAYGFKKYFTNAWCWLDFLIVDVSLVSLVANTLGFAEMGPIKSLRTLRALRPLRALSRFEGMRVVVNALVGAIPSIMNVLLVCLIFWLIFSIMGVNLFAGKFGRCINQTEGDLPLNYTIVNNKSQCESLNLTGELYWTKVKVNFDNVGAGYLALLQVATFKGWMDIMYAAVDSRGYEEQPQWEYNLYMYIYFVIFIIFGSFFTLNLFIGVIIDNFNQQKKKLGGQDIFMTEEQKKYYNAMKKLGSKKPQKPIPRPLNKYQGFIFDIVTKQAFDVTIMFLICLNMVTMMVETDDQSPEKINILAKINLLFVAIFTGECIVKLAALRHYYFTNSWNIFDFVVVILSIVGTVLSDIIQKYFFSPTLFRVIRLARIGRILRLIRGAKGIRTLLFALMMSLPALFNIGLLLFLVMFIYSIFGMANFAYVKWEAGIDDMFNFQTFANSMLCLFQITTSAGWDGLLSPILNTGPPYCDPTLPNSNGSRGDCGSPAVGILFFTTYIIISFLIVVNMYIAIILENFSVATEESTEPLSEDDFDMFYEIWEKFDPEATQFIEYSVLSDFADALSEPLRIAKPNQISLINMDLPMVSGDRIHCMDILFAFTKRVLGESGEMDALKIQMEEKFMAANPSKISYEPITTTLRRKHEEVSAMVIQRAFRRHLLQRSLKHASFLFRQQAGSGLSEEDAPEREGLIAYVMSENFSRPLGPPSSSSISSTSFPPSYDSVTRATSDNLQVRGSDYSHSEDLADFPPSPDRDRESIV
Experimental: as §1, §2, §3

Sequence of voltage-gated sodium channel Nav1.7 (Q15858 whole entry): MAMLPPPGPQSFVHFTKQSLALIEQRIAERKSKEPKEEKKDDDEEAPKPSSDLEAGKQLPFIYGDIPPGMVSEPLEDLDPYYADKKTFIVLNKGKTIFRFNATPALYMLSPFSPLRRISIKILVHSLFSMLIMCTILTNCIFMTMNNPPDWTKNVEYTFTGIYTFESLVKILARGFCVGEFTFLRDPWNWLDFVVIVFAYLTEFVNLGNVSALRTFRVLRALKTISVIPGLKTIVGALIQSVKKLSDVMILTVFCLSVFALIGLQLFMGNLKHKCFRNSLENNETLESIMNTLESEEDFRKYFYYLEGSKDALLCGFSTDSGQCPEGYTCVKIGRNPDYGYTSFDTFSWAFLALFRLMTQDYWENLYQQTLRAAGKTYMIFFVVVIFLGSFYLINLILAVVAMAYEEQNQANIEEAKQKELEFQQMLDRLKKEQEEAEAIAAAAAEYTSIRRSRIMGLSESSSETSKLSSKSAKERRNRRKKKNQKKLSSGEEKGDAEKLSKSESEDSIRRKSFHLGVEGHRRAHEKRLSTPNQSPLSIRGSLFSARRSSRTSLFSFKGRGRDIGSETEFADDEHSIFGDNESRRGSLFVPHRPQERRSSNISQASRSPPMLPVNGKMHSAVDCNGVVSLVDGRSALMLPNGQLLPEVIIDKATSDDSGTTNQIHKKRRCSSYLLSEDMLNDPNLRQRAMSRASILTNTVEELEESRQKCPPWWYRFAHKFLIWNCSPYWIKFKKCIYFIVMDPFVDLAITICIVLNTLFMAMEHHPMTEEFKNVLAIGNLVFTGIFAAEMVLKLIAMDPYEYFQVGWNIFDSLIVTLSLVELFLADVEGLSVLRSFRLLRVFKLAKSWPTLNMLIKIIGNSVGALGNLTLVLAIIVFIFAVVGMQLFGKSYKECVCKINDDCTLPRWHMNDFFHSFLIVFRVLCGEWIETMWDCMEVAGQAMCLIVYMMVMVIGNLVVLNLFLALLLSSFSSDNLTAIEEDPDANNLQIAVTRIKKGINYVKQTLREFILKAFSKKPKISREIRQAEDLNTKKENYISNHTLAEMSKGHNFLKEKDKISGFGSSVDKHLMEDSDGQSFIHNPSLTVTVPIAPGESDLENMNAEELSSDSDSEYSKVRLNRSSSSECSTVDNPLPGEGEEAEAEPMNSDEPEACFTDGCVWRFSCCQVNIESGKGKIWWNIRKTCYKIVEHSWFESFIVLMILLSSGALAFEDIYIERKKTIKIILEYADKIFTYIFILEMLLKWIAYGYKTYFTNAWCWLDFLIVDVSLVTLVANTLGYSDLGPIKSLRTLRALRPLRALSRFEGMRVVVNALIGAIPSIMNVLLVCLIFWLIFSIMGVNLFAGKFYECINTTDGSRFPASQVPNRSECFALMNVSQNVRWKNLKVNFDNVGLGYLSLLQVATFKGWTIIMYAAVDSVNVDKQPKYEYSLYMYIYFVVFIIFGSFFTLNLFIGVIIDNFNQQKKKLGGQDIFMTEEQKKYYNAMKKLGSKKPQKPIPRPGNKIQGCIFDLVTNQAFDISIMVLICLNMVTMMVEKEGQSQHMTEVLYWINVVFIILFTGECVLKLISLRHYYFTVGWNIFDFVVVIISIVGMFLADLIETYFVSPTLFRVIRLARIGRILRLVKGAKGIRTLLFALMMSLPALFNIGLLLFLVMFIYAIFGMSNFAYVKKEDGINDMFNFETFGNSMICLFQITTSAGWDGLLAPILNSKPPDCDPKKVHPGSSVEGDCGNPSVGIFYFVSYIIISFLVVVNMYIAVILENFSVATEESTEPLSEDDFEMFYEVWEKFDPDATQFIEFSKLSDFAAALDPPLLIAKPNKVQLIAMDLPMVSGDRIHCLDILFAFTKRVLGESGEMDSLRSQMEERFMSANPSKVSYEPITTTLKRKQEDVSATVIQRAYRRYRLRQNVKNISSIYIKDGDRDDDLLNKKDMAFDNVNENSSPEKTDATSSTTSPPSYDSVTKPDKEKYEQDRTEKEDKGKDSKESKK

Work on `Nc1nn(CCCO)c2cc(-c3ccccc3OC(F)(F)F)ccc12` [Example 68, 3-(3-amino-6-(2-(trifluoromethoxy)phenyl)-1H-indazol-1-yl)propan-1-ol] yielded an IC50 [1] of 200 nM and an IC50 [2] of 25000 nM.

Work on `CNc1nn(C)c2cc(-c3cccc(F)c3OCC(F)F)ccc12` [Example 57, 6-(2-(2,2-difluoroethoxy)-3-fluorophenyl)-N,1-dimethyl-1H-indazol-3-amine] yielded an IC50 [1] of 1300 nM and an IC50 [2] of over 33000 nM.

In the case of `Cn1nc(N)c2ccc(-c3ccccc3OCC(F)(F)F)cc21` [Example 8, 1-methyl-6-(2-(2,2,2-trifluoroethoxy)phenyl)-1H-indazol-3-amine], the IC50 [1] is reported as 320 nM and the IC50 [2] is reported as over 33000 nM.

For `Cn1nc(N)c2ccc(-c3c(F)cccc3OCC(F)(F)C(F)(F)F)cc21` [Example 24, 6-(2-fluoro-6-(2,2,3,3,3-pentafluoropropoxy)phenyl)-1-methyl-1H-indazol-3-amine], the IC50 [1] was 560 nM and the IC50 [2] was over 33000 nM.

For `Cn1nc(N)c2ccc(-c3cccc(F)c3OC(F)F)cc21` [Example 58, 6-(2-(difluoromethoxy)-3-fluorophenyl)-1-methyl-1H-indazol-3-amine], the IC50 [1] was 860 nM and the IC50 [2] was over 33000 nM.

Work on `Cn1nc(N)c2ccc(-c3cccc(F)c3OCC(F)(F)C(F)(F)F)cc21` [Example 22, 6-(3-fluoro-2-(2,2,3,3,3-pentafluoropropoxy)phenyl)-1-methyl-1H-indazol-3-amine] yielded an IC50 [1] of 100 nM and an IC50 [2] of over 33000 nM.

With `Nc1nn(CCCO)c2cc(-c3ccccc3C(F)(F)F)ccc12` [Example 67, 3-(3-amino-6-(2-(trifluoromethyl)phenyl)-1H-indazol-1-yl)propan-1-ol] the IC50 [1] was 740 nM and the IC50 [2] was 30000 nM.

With `COc1cccc(-c2ccc3c(N)nn(C)c3c2)c1OCC(F)F` [Example 41, 6-(2-(2,2-difluoroethoxy)-3-methoxyphenyl)-1-methyl-1H-indazol-3-amine] the IC50 [2] was over 33000 nM.

“6-(2-(2,2,3,3,3-pentafluoropropoxy)phenyl)-1H-indazol-3-amine [Example 14]” was tested, and the IC50 [1] was 560 nM and the IC50 [2] was 8000 nM.

With `COc1cccc(-c2ccc3c(N)nn(C)c3c2)c1OCC(F)(F)F` [Example 40, 6-(3-methoxy-2-(2,2,2-trifluoroethoxy)phenyl)-1-methyl-1H-indazol-3-amine] the IC50 [1] was 200 nM and the IC50 [2] was over 33000 nM.

Work on `Cn1nc(NCCCO)c2ccc(-c3ccccc3OCC(F)(F)C(F)(F)F)cc21` [Example 27, 3-(1-methyl-6-(2-(2,2,3,3,3-pentafluoropropoxy)phenyl)-1H-indazol-3-ylamino)propan-1-ol] yielded an IC50 [1] of 1500 nM and an IC50 [2] of 19800 nM.

`COc1ccc(OCC(F)(F)C(F)(F)F)c(-c2ccc3c(N)nn(C)c3c2)c1` [Example 3, 6-(5-methoxy-2-(2,2,3,3,3-pentafluoropropoxy)phenyl)-1-methyl-1H-indazol-3-amine] showed an IC50 [2] of over 33000 nM.

`Cn1nc(N)c2ccc(-c3cccc(F)c3OCC(F)F)cc21` [Example 42, 6-(2-(2,2-difluoroethoxy)-3-fluorophenyl)-1-methyl-1H-indazol-3-amine] showed an IC50 [1] of 290 nM and an IC50 [2] of 23000 nM.

`CN1CCC(CNc2nn(C)c3cc(-c4cccc(F)c4OCC(F)(F)F)ccc23)CC1` [Example 44, 6-(3-fluoro-2-(2,2,2-trifluoroethoxy)phenyl)-1-methyl-N-((1-methylpiperidin-4-yl)methyl)-1H-indazol-3-amine] gave an IC50 [1] of 1860 nM and an IC50 [2] of 4500 nM.

For `NC(=O)Cn1nc(N)c2ccc(-c3cccc(F)c3OCC(F)(F)C(F)(F)F)cc21` [Example 26, 2-(3-amino-6-(3-fluoro-2-(2,2,3,3,3-pentafluoropropoxy)phenyl)-1H-indazol-1-yl)acetamide], the IC50 [1] was 3650 nM.

With `Cn1nc(N)c2ccc(-c3cccnc3OCC(F)(F)F)cc21` [Example 47, 1-methyl-6-(2-(2,2,2-trifluoroethoxy)pyridin-3-yl)-1H-indazol-3-amine] the IC50 [1] was 2370 nM and the IC50 [2] was over 33000 nM.

Work on `Cn1nc(NCCO)c2ccc(-c3ccccc3OCC(F)(F)C(F)(F)F)cc21` [Example 12, 2-(1-methyl-6-(2-(2,2,3,3,3-pentafluoropropoxy)phenyl)-1H-indazol-3-ylamino)ethanol] yielded an IC50 [1] of 820 nM and an IC50 [2] of over 33000 nM.

With `COCCn1nc(N)c2ccc(-c3ccccc3OC(F)(F)F)cc21` [Example 82, 1-(2-methoxyethyl)-6-(2-(trifluoromethoxy)phenyl)-1H-indazol-3-amine] the IC50 [1] was 2000 nM.
